Laboratory results taken from patent US20230183179A1, “NOVEL CELL METABOLISM MODULATING COMPOUNDS AND USES THEREOF” (CRESCENTA BIOSCIENCES, priority 2020, published 2023).

Experiments:
[1] = biological target: T1, His6 tagged human recombinant FABP4 (Homo sapiens, UniProt P15090); test: FABP4 TR-FRET assay: displacement of fluorescent fatty acid BODIPY FL C12; conditions: inhibition of BODIPY FL C12 binding to His6-FABP4; 1.2 μL of 1.085 mM compound in DMSO per well; triplicates, mean percent inhibition
T1 construct: purchased Cayman Chemicals 10009549
T1 sequence (P15090 whole entry): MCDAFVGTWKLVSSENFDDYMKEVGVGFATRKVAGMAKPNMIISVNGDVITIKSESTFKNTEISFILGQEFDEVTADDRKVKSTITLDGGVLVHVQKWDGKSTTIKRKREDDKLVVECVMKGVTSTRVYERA
Text: Activity of compounds with FABP4 was profiled using a Terbium (Tb) based time resolved fluorescence energy transfer (TR-FRET) assay. The assay measures the compound mediated displacement of the fluorescent fatty acid BODIPY FL C12 (Thermo Fisher; catalog number D3822) from His6 tagged human recombinant FABP4 (His6-FABP4; Cayman Chemicals, catalog number 10009549) via recording the energy transfer from TB donor molecule on anti-His6-tag antibody to acceptor BODIPY moiety. Briefly, compounds and BODIPY FL C12 were prepared at a concentration of 1.085 mM and 4.2 μM, respectively, in DMSO. 1.2 μL of each compound or DMSO (vehicle control) and 1.2 μL of BODIPY FL C12 were added into the wells of a 384-well black polypropylene plate. His6-FABP4 and Tb anti-His6 antibody were prepared in the assay buffer (25 mM Tris/HCl, pH 7.4, 0.4 mg/ml γ-globulins, 0.010% NP-40, 1 mM DTT) at a concentration of 83 nM and 49.6 nM, respectively. The protein and antibody solutions were then mixed at a ratio of 34:7 (v/v) and incubated on ice for 30 minutes. The assay was initiated by adding 41 μL of the resulting protein/antibody solution into the wells containing the compounds and BODIPY FL C12. The plate was centrifuged and incubated at room temperature for 10 min. The TR-FRET signals were recorded using an EnVision Multilabel plate reader (PerkinElmer; TB excitation 320 nm, BODIPY FL C12 emission 520 nm; TB emission 615 nm). Relative fluorescence ratio (520 nm*10,000/615 nm) were used to calculate the compound mediated inhibition of BODIPY C12 FL fatty acid binding to FABP4. The compounds were tested in triplicates and the results were represented as mean percent inhibition (compound*100/DMSO)±standard deviation (SD). Glucose consumption and FABP4 inhibition is shown below in Table 3 below. The compounds showing no inhibition of activity in the TR-FRET assay are marked as N.A. N.D. stands for “not determined”.

[2] = system: differentiated 3T3-L1 mouse adipocyte cells; test: Adipocyte glucose consumption in differentiated 3T3-L1 cells (colorimetric glucose assay of the medium); type: cell-based; conditions: 3T3-L1, 24 h, compound 10 μM, loss of glucose from culture medium, mean fold change (compound/DMSO)
Protocol: Activity of compounds on adipocyte glucose consumption was tested in differentiated 3T3-L1 mouse adipocyte cells. 3T3-L1 preadipocytes (ATCC) were routinely cultured in a growth medium composed of DMEM high-glucose (Sigma), 10% FBS (Gibco), 10 U/ml penicillin and 10 μg/ml streptomycin (P/S; Gibco). To induce adipogenic differentiation, a confluent layer of 3T3-L1 cells were incubated with the growth medium containing 2 μM rosiglitazone, 1 μM dexamethasone, 500 μM IBMX, and 1 μg/ml insulin (Sigma). Forty-eight (48) hours later (on day 2) and on days 4 and 6, medium of the cells was replaced with fresh medium containing 1 μg/ml insulin. On days 8 and 10, the medium was refreshed with regular growth medium and addition of insulin was omitted. On day 11, medium of the cells were 10 replaced with fresh medium containing either the indicated compounds (10 μM) or the vehicle in which the compounds were dissolved (DMSO). The final concentration of DMSO was 0.1% (v/v). Growth medium containing 0.1% DMSO was incubated in culture wells containing no cells and used as control. 24 hours later, medium was harvested and subjected to centrifugation at 10,000 g for 5 min. Glucose concentration in the supernatants was determined using a 15 colorimetric assay (Glucose Assay Kit I, Eton Biosciences). Glucose consumption in compound and vehicle treated cells was measured as loss of glucose from the culture medium and represented as mean fold change (compound/DMSO)±standard deviation (SD).

## CCCc1ccc2nc(OCC(=O)O)cc(-c3cccc(C(N)=O)c3)c2c1 [2-{[4-(3-carbamoylphenyl)-6-propylquinolin-2-yl]oxy}acetic acid]
[1]
  inhibition at 1085 µM (stock): 42.9%
[2]
  fold induction at 10 µM: 1

## CCCCc1ccc2nc(N(C)CC(=O)O)cc(-c3ccccc3O)c2c1 [2-{[6-butyl-4-(2-hydroxyphenyl)quinolin-2-yl](methyl)amino}acetic acid]
[1]
  inhibition at 1085 µM (stock): 93.2%
[2]
  fold induction at 10 µM: 1.19

## CN(CC(=O)O)c1cc(-c2ccccc2)c2cc(CCN3CCc4ccccc43)ccc2n1 [2-({6-[2-(2,3-dihydro-1H-indol-1-yl)ethyl]-4-phenylquinolin-2-yl}(methyl)amino)acetic acid]
[1]
  inhibition at 1085 µM (stock): 76.3%

## CN(CC(=O)O)c1cc(-c2ccccc2)c2cc(/C=C/c3ccccc3)ccc2n1 [2-[methyl({4-phenyl-6-[(1E)-2-phenylethenyl]quinolin-2-yl})amino]acetic acid]
[2]
  fold induction at 10 µM: 1.21

## CCCCCCc1ccc2nc(N(C)CC(=O)NCCO)cc(-c3ccccc3)c2c1 [2-[(6-hexyl-4-phenylquinolin-2-yl)(methyl)amino]-N-(2-hydroxyethyl)acetamide]
[2]
  fold induction at 10 µM: 1.11

## CCCCCCCCCCc1ccc2nc(N(C)CC(=O)O)cc(-c3ccc(F)cc3)c2c1 [2-{[6-decyl-4-(4-fluorophenyl)quinolin-2-yl](methyl)amino}acetic acid]
[2]
  fold induction at 10 µM: 1.37

## CCCCCCc1ccc2nc(OC(C)C(=O)O)cc(-c3ccccc3)c2c1 (stereo not drawn) [2-[(6-hexyl-4-phenylquinolin-2-yl)oxy]propanoic acid]
[2]
  fold induction at 10 µM: 1.25

## CCc1ccc(-c2ccc3nc(N(C)CC(=O)O)cc(-c4ccccc4)c3c2)cc1 [2-{[6-(4-ethylphenyl)-4-phenylquinolin-2-yl](methyl)amino}acetic acid]
[2]
  fold induction at 10 µM: 1.06

## CCCCCCc1ccc2nc([C@H]3C[C@H]3C(=O)O)cc(-c3ccccc3)c2c1 (relative stereo) [cis-2-(6-hexyl-4-phenylquinolin-2-yl)cyclopropane-1-carboxylic acid]
[2]
  fold induction at 10 µM: 1.36

## CN(CC(=O)O)c1cc(-c2ccccc2)c2cc(CCc3ccccc3)ccc2n1 [2-{methyl [4-phenyl-6-(2-phenylethyl)quinolin-2-yl]amino}acetic acid]
[2]
  fold induction at 10 µM: 1.48

## CCCCCCCc1ccc2nc(N(C)CC(=O)O)cc(-c3ccccc3)c2c1 [2-[(6-heptyl-4-phenylquinolin-2-yl)(methyl)amino]acetic acid]
[2]
  fold induction at 10 µM: 1.4

## CCCCCCc1ccc2nc(/C=C3/SC(=O)NC3=O)cc(-c3ccccc3)c2c1 [5-[(6-hexyl-4-phenylquinolin-2-yl)methylidene]-1,3-thiazolidine-2,4-dione]
[2]
  fold induction at 10 µM: 1.29

## CCCCc1ccc2nc(N(C)CCC(=O)O)cc(-c3ccccc3)c2c1 [3-[(6-butyl-4-phenylquinolin-2-yl)(methyl)amino]propanoic acid]
[2]
  fold induction at 10 µM: 1.1

## CN(CC(=O)O)c1cc(-c2ccccc2)c2cc(CCc3ccccn3)ccc2n1 [2-[methyl({4-phenyl-6-[2-(pyridin-2-yl)ethyl]quinolin-2-yl})amino]acetic acid]
[2]
  fold induction at 10 µM: 1.39

## CN(CC(=O)O)c1cc(-c2ccccc2)c2cc(CCN3CCC(O)CC3)ccc2n1 [2-({6-[2-(4-hydroxypiperidin-1-yl)ethyl]-4-phenylquinolin-2-yl}(methyl)amino)acetic acid]
[1]
  inhibition at 1085 µM (stock): 14.3%

## CCCCCCc1ccc2nc(N(C)CC(=O)O)cc(-c3ccccc3C(=O)O)c2c1 [2-{2-[(carboxymethyl)(methyl)amino]-6-hexylquinolin-4-yl}benzoic acid]
[2]
  fold induction at 10 µM: 1.17

## CCCCCCc1ccc2nc(N3CCC(C(=O)O)C3)cc(-c3ccccc3)c2c1 (stereo not drawn) [1-(6-hexyl-4-phenylquinolin-2-yl)pyrrolidine-3-carboxylic acid]
[2]
  fold induction at 10 µM: 1.24

## O=C(O)C1CCN(c2cc(-c3ccccc3)c3cc(CCc4ccccc4)ccc3n2)C1 (stereo not drawn) [1-[4-phenyl-6-(2-phenylethyl)quinolin-2-yl]pyrrolidine-3-carboxylic acid]
[2]
  fold induction at 10 µM: 1.21

## CCCCCCc1ccc2nc(NCC(=O)O)cc(-c3ccc(F)cc3)c2c1 [2-([4-(4-fluorophenyl)-6-hexylquinolin-2-yl]amino}acetic acid]
[2]
  fold induction at 10 µM: 1.12

## CCN(CC)CCc1ccc2nc(N(C)CC(=O)O)cc(-c3ccccc3)c2c1 [2-({6-[2-(diethylamino)ethyl]-4-phenylquinolin-2-yl}(methyl)amino)acetic acid]
[1]
  inhibition at 1085 µM (stock): 5.17%

## CN(CC(=O)O)c1cc(-c2ccccc2)c2cc(CCN3CCc4ccccc4C3)ccc2n1 [2-[methyl({4-phenyl-6-[2-(1,2,3,4-tetrahydroisoquinolin-2-yl)ethyl]quinolin-2-yl})amino]acetic acid]
[1]
  inhibition at 1085 µM (stock): 21.7%

## CCCCCCc1ccc2nc(N(C)CC(=O)O)cc(-c3cccc(C)c3)c2c1 [2-{[6-hexyl-4-(3-methylphenyl)quinolin-2-yl](methyl)amino}acetic acid]
[2]
  fold induction at 10 µM: 1.11

## CN(CC(=O)O)c1cc(-c2ccccc2)c2cc(CCc3nc4ccccc4n3C)ccc2n1 [2-[methyl({6-[2-(1-methyl-1H-1,3-benzodiazol-2-yl)ethyl]-4-phenylquinolin-2-yl})amino]acetic acid]
[1]
  inhibition at 1085 µM (stock): 30.3%

## CCCCCCc1ccc2nc([C@@H]3C[C@H]3C(=O)O)cc(-c3ccccc3)c2c1 (relative stereo) [trans-2-(6-hexyl-4-phenylquinolin-2-yl)cyclopropane-1-carboxylic acid]
[2]
  fold induction at 10 µM: 1.14

## CCCCCCc1ccc2nc(C(C)CC(=O)O)cc(-c3ccccc3)c2c1 (stereo not drawn) [3-(6-hexyl-4-phenylquinolin-2-yl)butanoic acid]
[2]
  fold induction at 10 µM: 1.3

## CCCCCCc1ccc2nc(N(C)CC(=O)O)cc(-c3c(C)noc3C)c2c1 [2-{[4-(3,5-dimethyl-1,2-oxazol-4-yl)-6-hexylquinolin-2-yl](methyl)amino}acetic acid]
[2]
  fold induction at 10 µM: 1.22

## CCCCCCc1ccc2nc(N(C)CC(=O)O)cc(-c3ccccc3F)c2c1 [2-{[4-(2-fluorophenyl)-6-hexylquinolin-2-yl](methyl)amino}acetic acid]
[2]
  fold induction at 10 µM: 1.26

## CCCCCCc1ccc2nc(N(C)c3nn[nH]n3)cc(-c3ccccc3)c2c1 [6-hexyl-N-methyl-4-phenyl-N-(2H-1,2,3,4-tetrazol-5-yl)quinolin-2-amine]
[2]
  fold induction at 10 µM: 1.11

## CCCCCCc1ccc2nc(CC3SC(=O)NC3=O)cc(-c3ccccc3)c2c1 (stereo not drawn) [5-[(6-hexyl-4-phenylquinolin-2-yl)methyl]-1,3-thi azolidine-2,4-dione]
[2]
  fold induction at 10 µM: 1.33

## CCCC/C=C/c1ccc2nc(N(C)CC(=O)O)cc(-c3ccccc3)c2c1 [2-({6-[(1E)-hex-1-en-1-yl]-4-phenylquinolin-2-yl}(methyl)amino)acetic acid]
[2]
  fold induction at 10 µM: 1.32

## CCCCc1ccc2nc(N(C)CC(=O)O)cc(-c3ccccc3)c2c1 [2-[(6-butyl-4-phenylquinolin-2-yl)(methyl)amino]acetic acid]
[2]
  fold induction at 10 µM: 1.37

## CCCCCCc1ccc2nc(N3CC(C(=O)O)C3)cc(-c3ccccc3)c2c1 [1-(6-hexyl-4-phenylquinolin-2-yl)azetidine-3-carboxylic acid]
[2]
  fold induction at 10 µM: 1.27

## CN(CC(=O)O)c1cc(-c2ccccc2)c2cc(CCN3CCCC3)ccc2n1 [2-[methyl({4-phenyl-6-[2-(pyrrolidin-1-yl)ethyl]quinolin-2-yl})amino]acetic acid]
[1]
  inhibition at 1085 µM (stock): 2.04%

## CCCCCCc1ccc2nc(N(C)CC(=O)O)cc(-c3cccc(C#N)c3)c2c1 [2-{[4-(3-cyanophenyl)-6-hexylquinolin-2-yl](methyl)amino}acetic acid]
[2]
  fold induction at 10 µM: 1.26
